# Experimental data as given in patent US11191820B2, “Method for inducing early T memory response with short peptides anti-tumor vaccine” (OSE IMMUNOTHERAPEUTICS, priority 2015, dated 2021).
# How the values were obtained:
# Type in all cases: in vivo, human
# [1] = system: central memory T cells; assay: Cultured IFN-γ ELISPOT after 10-day in vitro stimulation of PBMC, phase 1/2 colon cancer trial of OSE-2101; parameters: key to net SFC of vaccine positive CTL responses: —, indicates SFC response did not meet criteria and vaccine response was negative; details: for Mean SFC: 10 colon patients
# Experimental: (§1) Clinical study design. Both trials were designed as phase 1/2, open label, multi-center, single dose, multiple administration studies to evaluate the safety and immunogenicity of the OSE-2101 immunotherapy. Patients were treated with 1 ml OSE-2101 every 3 weeks for a total of six doses. Each dose was administered subcutaneously in the same vicinity in the deltoid or upper thigh region, or at a contralateral site if local side-effects were observed. The study duration for each completed patient was 18 weeks. Clinical responses or patient survival were not measured in either phase 1/2 studies.
# (§2) Clinical sample processing. Blood or leukapheresis product was obtained from patients at the pre-treatment, the Week 9 and Week 18 time points, 3 weeks after the third and sixth dose of OSE-2101 respectively. Peripheral blood mononuclear cells (PBMC) were isolated from samples within 24 hours of collection using a FICOLL-PAQUE density gradient and cryopreserved in containers designed to ensure optimal freezing (Mr. Frosty, Nalgene). For use, cells were rapidly thawed at 37° C. then transferred to human AB serum-containing medium for work-up.
# (§3) Measurement of central T memory cells responses and T effector memory cells. The CTL responses in 16 total patients (10 colon and six NSCLC) were monitored for CTL responses against each epitope and against the wild-type epitope of epitopes analogs. For each patient, the pre-treatment, Week 9 and Week 18 time points were batch-tested in the same experiment to allow pre- versus post-treatment response comparison in the same experiment. Central T memory cells responses were measured using an IFN-γ enzyme-linked immunospot (cultured ELISPOT) assay following in vitro stimulation of PBMC for 10 days with each vaccine epitope. Briefly, PBMC from each time point were stimulated on day 0 with 10 μg/ml of each epitope individually in replicate in 48-well culture plates (2×10^6 PBMC/well). All cultures were fed with rIL-2 (Endogen, Woburn, Mass.; 10 U/ml final concentration) on days 1, 4 and 7. Ten days after initiation of culture, cells were harvested and tested for activity against specific vaccine peptides and corresponding wild-type peptides of vaccine analogs in the T memory ELISPOT assay. Cells were tested in Millipore IP 96-well plates pre-coated with mouse anti-human IFN-γ antibody (Mabtech USA, Cincinnati, Ohio). Five×10^4 cells and 1.25×10^4 cells from each culture were plated in triplicate wells together with 10^5 irradiated autologous PBMC and 10 μg/ml peptide. As a control, CTL were also tested against an irrelevant HLA-A2.1-binding HBV peptide. After 20 hours incubation, T memory ELISPOT plates were developed by performing sequential incubations with biotinylated anti-human IFN-γ antibody (Mabtech USA), Avidin-Peroxidase Complex (APC, Vector Laboratories, Burlingame, Calif.), and 3-amino-9-ethyl carbazole (AEC) substrate (Sigma Aldrich, St. Louis, Mo.). Spot-forming cells (SFC) were enumerated using a computer-assisted image analysis system (Zeiss KS ELISPOT Reader, Carl Zeiss MicroImaging, Thornwood, N.J.). Data is reported as the net SFC per 5×10^4 cells after subtracting spots induced with the irrelevant HBV peptide.
# [2] = system: central memory T cells; assay: Cultured IFN-γ ELISPOT after 10-day in vitro stimulation of PBMC, phase 1/2 NSCLC trial of OSE-2101; parameters: key to net SFC of vaccine positive CTL responses: —, indicates SFC response did not meet criteria and vaccine response was negative; details: for Mean SFC / No. Positive Responses: 6 NSCLC patients
# Experimental: as §1, §2, §3
# [3] = system: central memory T cells; assay: Central memory T cell cultured ELISPOT, phase 2 trial in advanced NSCLC
# Experimental: CTL Immune responses measured though cultured Elispot. The immunogenicity was measured in Phase 2 clinical trial on cryopreserved PBMC from each test sample were thawed in 5% human culture medium (RPMI-1640 medium with 25 mM HEPES, supplemented with 5% human AB serum, 4 mM L-glutamine, 0.5 mM sodium pyruvate, 0.1 mM MEM non-essential amino acids, 100 μg/ml streptomycin, and 100 U/ml penicillin) containing 30 μg/ml DNAase. After centrifugation for 5 minutes at 1200 rpm, the cell pellets were resuspended in 5% human culture medium and washed 2 times. For the central Memory T cell cultured ELISPOT assay, 2×10^6/ml PBMC were placed in replicate wells in a 48-well plates and stimulated for 10 days with 10 μg/ml of each peptide. As a positive control, PBMC were also stimulated with a pool of recall viral peptides. Human rIL2 (10 U/ml) was added to the peptide-stimulated cultures at day 1, day 4 and day 7. After 10 days the stimulated cells were harvested and plated at a concentration of 5×10^4/well. Assay wells also received irradiated autologous PBMC (1×10^5/well) and 10 μg/ml peptide, either the vaccine peptide, irrelevant peptide or positive control peptides. Cells stimulated in vitro with each analog epitope were also tested against the corresponding wild-type epitope.
# Data analysis and acceptance criteria. Mean and standard deviation (SD) of spots in replicate wells were calculated in all assays by transferring raw ELISPOT data from each experiment to an Excel-based computer program. Positive vaccine-induced T-cell responses were determined according to the criteria described below.
# Acceptance Criteria for peptide-Induced specific T-cell response through central memory T cells: The positive criteria for CTL responses used in the phase 2 trial was identical to the criteria in the phase 1/2 trials which was established prospectively after analyzing the variability of pre-treatment responses in patients against each vaccine epitope and the irrelevant HBV control epitope. A positive peptide-induced CTL/T memory response to a given epitope met all of the following conditions: 1) was greater than 5 SFC above the irrelevant epitope response, 2) was greater than the mean SFC of the irrelevant epitope response, plus 2 SD, and 3) was two-fold greater than the SFC response in the pre-vaccination sample from the same patient, plus 2 SD. The inclusion of “plus two standard deviations” was used to accommodate the assay variability and served to increase the criteria stringency.
sequence,measurement,setting,value
YLQLVFGIEV [MAGE2.157 WT],Mean SFC,[1]; Week 9,"246.0 SFC per 50,000 cells"
same,Mean SFC,[1]; Week 18,"418.1 SFC per 50,000 cells"
same,net SFC of vaccine positive CTL responses,"[1]; colon patient 551, Week 9",—
same,net SFC of vaccine positive CTL responses,"[1]; colon patient 551, Week 18","45.7 SFC per 50,000 cells"
same,net SFC of vaccine positive CTL responses,"[1]; colon patient 601, Week 9",—
same,net SFC of vaccine positive CTL responses,"[1]; colon patient 601, Week 18",—
same,net SFC of vaccine positive CTL responses,"[1]; colon patient 602, Week 9",—
same,net SFC of vaccine positive CTL responses,"[1]; colon patient 602, Week 18",—
same,net SFC of vaccine positive CTL responses,"[1]; colon patient 603, Week 9","320.0 SFC per 50,000 cells"
same,net SFC of vaccine positive CTL responses,"[1]; colon patient 603, Week 18",—
same,net SFC of vaccine positive CTL responses,"[1]; colon patient 604, Week 9",—
same,net SFC of vaccine positive CTL responses,"[1]; colon patient 604, Week 18",—
same,net SFC of vaccine positive CTL responses,"[1]; colon patient 605, Week 9",—
same,net SFC of vaccine positive CTL responses,"[1]; colon patient 605, Week 18",—
same,net SFC of vaccine positive CTL responses,"[1]; colon patient 606, Week 9",—
same,net SFC of vaccine positive CTL responses,"[1]; colon patient 606, Week 18","24.7 SFC per 50,000 cells"
same,net SFC of vaccine positive CTL responses,"[1]; colon patient 607, Week 9","172.0 SFC per 50,000 cells"
same,net SFC of vaccine positive CTL responses,"[1]; colon patient 607, Week 18","1184.0 SFC per 50,000 cells"
same,net SFC of vaccine positive CTL responses,"[1]; colon patient 608, Week 9",—
same,net SFC of vaccine positive CTL responses,"[1]; colon patient 608, Week 18",—
same,net SFC of vaccine positive CTL responses,"[1]; colon patient 609, Week 9",—
same,net SFC of vaccine positive CTL responses,"[1]; colon patient 609, Week 18",—
same,Mean SFC,[2]; Week 9,"30.0 SFC per 50,000 cells"
same,No. Positive Responses,[2]; Week 9,2
same,Mean SFC,[2]; Week 18,"66.8 SFC per 50,000 cells"
same,No. Positive Responses,[2]; Week 18,2
same,net SFC of vaccine positive CTL responses,"[2]; NSCLC patient 201, Week 9",—
same,net SFC of vaccine positive CTL responses,"[2]; NSCLC patient 201, Week 18",—
same,net SFC of vaccine positive CTL responses,"[2]; NSCLC patient 502, Week 9","9.3 SFC per 50,000 cells"
same,net SFC of vaccine positive CTL responses,"[2]; NSCLC patient 502, Week 18",—
same,net SFC of vaccine positive CTL responses,"[2]; NSCLC patient 504, Week 9","50.7 SFC per 50,000 cells"
same,net SFC of vaccine positive CTL responses,"[2]; NSCLC patient 504, Week 18","124.7 SFC per 50,000 cells"
same,net SFC of vaccine positive CTL responses,"[2]; NSCLC patient 505, Week 9",—
same,net SFC of vaccine positive CTL responses,"[2]; NSCLC patient 505, Week 18",—
same,net SFC of vaccine positive CTL responses,"[2]; NSCLC patient 532, Week 9",—
same,net SFC of vaccine positive CTL responses,"[2]; NSCLC patient 532, Week 18",—
same,net SFC of vaccine positive CTL responses,"[2]; NSCLC patient 651, Week 9",—
same,net SFC of vaccine positive CTL responses,"[2]; NSCLC patient 651, Week 18","9.0 SFC per 50,000 cells"
same,% of patients with positive CTL/central memory T cell response,"[3]; phase 2, month 9",57%
same,patients with positive CTL/central memory T cell response / patients tested,"[3]; phase 2, month 9",4/7
same,% of patients with positive CTL/central memory T cell response,"[3]; phase 2, month 12",50%
same,patients with positive CTL/central memory T cell response / patients tested,"[3]; phase 2, month 12",2/4
same,% of patients with positive CTL/central memory T cell response,"[3]; phase 2, week 9",27%
same,patients with positive CTL/central memory T cell response / patients tested,"[3]; phase 2, week 9",9/33
same,% of patients with positive CTL/central memory T cell response,"[3]; phase 2, week 18",28%
same,patients with positive CTL/central memory T cell response / patients tested,"[3]; phase 2, week 18",9/32
same,% of patients with positive CTL/central memory T cell response,"[3]; phase 2, week 30",43%
same,patients with positive CTL/central memory T cell response / patients tested,"[3]; phase 2, week 30",10/23
